Measured values reported in the supplement of paper PMC11061612.

Assays:
AZD5991 = compound: Cc1c2c(nn1C)CSCc1cc(n(C)n1)CSc1cc(c3ccccc3c1)OCCCc1c(C(=O)O)n(C)c3c-2c(Cl)ccc13 [AZD5991]; conditions: max 1 µM
Summary of the method: (§1)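 After 24 hours at 37°C and 5% CO2 in 1536-well plates holding 7.5 μl of DMEM/F12 or RPMI with 10% FBS, cancer cell lines were dosed for 72 hours, with final DMSO typically 0.2%. Viability came from CellTiter-Glo 2.0 luminescence, scaled between the means of blank wells and DMSO wells. A non-linear mixed effects model fitted a two-parameter logistic curve to each dose response to give the single-agent IC50.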

Alisertib = compound: COc1cc(Nc2ncc3c(n2)-c2ccc(Cl)cc2C(c2c(F)cccc2OC)=NC3)ccc1C(=O)O [Alisertib]; conditions: max 10 µM
Summary of the method: as §1

Taselisib = compound: Cc1nc(-c2cn3c(n2)-c2ccc(-c4cnn(C(C)(C)C(N)=O)c4)cc2OCC3)n(C(C)C)n1 [Taselisib]; conditions: max 10 µM
Summary of the method: as §1

AZD1390 = compound: CC(C)n1c(=O)n(C)c2cnc3cc(F)c(-c4ccc(OCCCN5CCCCC5)nc4)cc3c21 [AZD1390]; conditions: max 0.3 µM
Summary of the method: as §1

Prexasertib = compound: COc1cccc(OCCCN)c1-c1cc(Nc2cnc(C#N)cn2)n[nH]1 [Prexasertib]; conditions: max 1 µM
Summary of the method: as §1

AZD8186 = compound: C[C@@H](Nc1cc(F)cc(F)c1)c1cc(C(=O)N(C)C)cc2c(=O)cc(N3CCOCC3)oc12 [AZD8186]; conditions: max 10 µM
Summary of the method: as §1

Carboplatin = compound: C1CC(C1)(C(=O)[O-])C(=O)[O-].N.N.[Pt+2] [Carboplatin]; conditions: max 10 µM
Summary of the method: as §1

Venetoclax = compound: CC1(C)CCC(CN2CCN(c3ccc(C(=O)NS(=O)(=O)c4ccc(NCC5CCOCC5)c([N+](=O)[O-])c4)c(Oc4cnc5[nH]ccc5c4)c3)CC2)=C(c2ccc(Cl)cc2)C1 [Venetoclax]; conditions: max 1 µM
Summary of the method: as §1

Trametinib = compound: CC(=O)Nc1cccc(-n2c(=O)n(C3CC3)c(=O)c3c(Nc4ccc(I)cc4F)n(C)c(=O)c(C)c32)c1 [Trametinib]; conditions: max 1 µM
Summary of the method: as §1

AZD7648 = compound: Cc1cc2ncnn2cc1Nc1ncc2c(n1)n(C1CCOCC1)c(=O)n2C [AZD7648]; conditions: max 10 µM
Summary of the method: as §1

5-Fluorouracil = compound: O=c1[nH]cc(F)c(=O)[nH]1 [5-Fluorouracil]; conditions: max 20 µM
Summary of the method: as §1

[1] = compound: O=C(Nc1ccc2[nH]nc(-c3ccncc3)c2c1)[C@@H]1CCN(CC(=O)N2CCN(c3ccc(-c4ncccn4)cc3)CC2)C1; conditions: max 5 µM
Summary of the method: as §1

Gefitinib = compound: COc1cc2ncnc(Nc3ccc(F)c(Cl)c3)c2cc1OCCCN1CCOCC1 [Gefitinib]; conditions: max 10 µM
Summary of the method: as §1

Etoposide = compound: COc1cc([C@@H]2c3cc4c(cc3[C@@H](O[C@@H]3O[C@@H]5CO[C@@H](C)O[C@H]5[C@H](O)[C@H]3O)[C@H]3COC(=O)[C@H]23)OCO4)cc(OC)c1O [Etoposide]; conditions: max 10 µM
Summary of the method: as §1

MK-2206 = compound: NC1(c2ccc(-c3nc4ccn5c(=O)[nH]nc5c4cc3-c3ccccc3)cc2)CCC1 [MK-2206]; conditions: max 10 µM
Summary of the method: as §1

Crizotinib = compound: C[C@@H](Oc1cc(-c2cnn(C3CCNCC3)c2)cnc1N)c1c(Cl)ccc(F)c1Cl [Crizotinib]; conditions: max 10 µM
Summary of the method: as §1

AZD1775 = compound: C=CCn1c(=O)c2cnc(Nc3ccc(N4CCN(C)CC4)cc3)nc2n1-c1cccc(C(C)(C)O)n1 [AZD1775]; conditions: max 3 µM
Summary of the method: as §1

Savolitinib = compound: C[C@@H](c1ccc2nccn2c1)n1nnc2ncc(-c3cnn(C)c3)nc21 [Savolitinib]; conditions: max 1 µM
Summary of the method: as §1

AZD5153 = compound: COc1nnc2ccc(N3CCC(c4ccc(OCCN5CCN(C)C(=O)[C@H]5C)cc4)CC3)nn12 [AZD5153]; conditions: max 1 µM
Summary of the method: as §1

Selumetinib = compound: Cn1cnc2c(F)c(Nc3ccc(Br)cc3Cl)c(C(=O)NOCCO)cc21 [Selumetinib]; conditions: max 10 µM
Summary of the method: as §1

Olaparib = compound: O=C(c1cc(Cc2n[nH]c(=O)c3ccccc23)ccc1F)N1CCN(C(=O)C2CC2)CC1 [Olaparib]; conditions: max 10 µM
Summary of the method: as §1

AZD4320 = compound: CN(CC[C@H](CSC1=CC=CC=C1)NC2=C(C=C(C=C2)S(=O)(=O)NC(=O)C3=CC=C(C=C3)N4CCC(CC4)[C@H](C5=CC=CC=C5C6=CC=C(C=C6)Cl)O)S(=O)(=O)C(F)(F)F)CCO [AZD4320]; conditions: max 1 µM
Summary of the method: as §1

Gemcitabine = compound: Nc1ccn([C@@H]2O[C@H](CO)[C@@H](O)C2(F)F)c(=O)n1 [Gemcitabine]; conditions: max 0.3 µM
Summary of the method: as §1

AZD6738 = compound: C[C@@H]1COCCN1C2=NC(=NC(=C2)C3(CC3)[S@](=N)(=O)C)C4=C5C=CNC5=NC=C4 [AZD6738]; conditions: max 10 µM
Summary of the method: as §1

AZD5363 = compound: C1CN(CCC1(C(=O)N[C@@H](CCO)C2=CC=C(C=C2)Cl)N)C3=NC=NC4=C3C=CN4 [AZD5363]; conditions: max 10 µM
Summary of the method: as §1

Doxorubicin = compound: COc1cccc2c1C(=O)c1c(O)c3c(c(O)c1C2=O)C[C@@](O)(C(=O)CO)C[C@@H]3O[C@H]1C[C@H](N)[C@H](O)[C@H](C)O1 [Doxorubicin]; conditions: max 1 µM
Summary of the method: as §1

SRA737 = compound: N#Cc1cnc(Nc2cc(NC[C@H]3CNCCO3)c(C(F)(F)F)cn2)cn1 [SRA737]; conditions: max 10 µM
Summary of the method: as §1

Paclitaxel = compound: CC(=O)O[C@H]1C(=O)[C@@]2(C)[C@H]([C@H](OC(=O)c3ccccc3)[C@]3(O)C[C@H](OC(=O)[C@H](O)[C@@H](NC(=O)c4ccccc4)c4ccccc4)C(C)=C1C3(C)C)[C@]1(OC(C)=O)CO[C@@H]1C[C@@H]2O [Paclitaxel]; conditions: max 3 µM
Summary of the method: as §1

Lapatinib = compound: CS(=O)(=O)CCNCc1ccc(-c2ccc3ncnc(Nc4ccc(OCc5cccc(F)c5)c(Cl)c4)c3c2)o1 [Lapatinib]; conditions: max 10 µM
Summary of the method: as §1

AZD2811 = compound: CCN(CCO)CCCOc1ccc2c(Nc3cc(CC(=O)Nc4cccc(F)c4)[nH]n3)ncnc2c1 [AZD2811]; conditions: max 1 µM
Summary of the method: as §1

SN-38 = compound: CCc1c2c(nc3ccc(O)cc13)-c1cc3c(c(=O)n1C2)COC(=O)[C@]3(O)CC [SN-38]; conditions: max 0.3 µM
Summary of the method: as §1

AZD0156 = compound: CN(C)CCCOc1ccc(-c2ccc3ncc4c(c3c2)n(C2CCOCC2)c(=O)n4C)cn1 [AZD0156]; conditions: max 3 µM
Summary of the method: as §1

SG3199 = compound: CC1=CN2[C@@H](C1)C=NC3=CC(=C(C=C3C2=O)OC)OCCCCCOC4=C(C=C5C(=C4)N=C[C@@H]6CC(=CN6C5=O)C)OC [SG3199]; conditions: max 0.001 µM
Summary of the method: as §1

Dasatinib = compound: CC1=C(C(=CC=C1)Cl)NC(=O)C2=CN=C(S2)NC3=CC(=NC(=N3)C)N4CCN(CC4)CCO [Dasatinib]; conditions: max 2 µM
Summary of the method: as §1

Palbociclib = compound: CC(=O)c1c(C)c2cnc(Nc3ccc(N4CCNCC4)cn3)nc2n(C2CCCC2)c1=O [Palbociclib]; conditions: max 10 µM
Summary of the method: as §1

| Cell Line | IC50, cell viability 72 h (AZD5991) | IC50, cell viability 72 h (Alisertib) | IC50, cell viability 72 h (Taselisib) | IC50, cell viability 72 h (AZD1390) | IC50, cell viability 72 h (Prexasertib) | IC50, cell viability 72 h (AZD8186) | IC50, cell viability 72 h (Carboplatin) | IC50, cell viability 72 h (Venetoclax) | IC50, cell viability 72 h (Trametinib) | IC50, cell viability 72 h (AZD7648) | IC50, cell viability 72 h (5-Fluorouracil) | IC50, cell viability 72 h [1] | IC50, cell viability 72 h (Gefitinib) | IC50, cell viability 72 h (Etoposide) | IC50, cell viability 72 h (MK-2206) | IC50, cell viability 72 h (Crizotinib) | IC50, cell viability 72 h (AZD1775) | IC50, cell viability 72 h (Savolitinib) | IC50, cell viability 72 h (AZD5153) | IC50, cell viability 72 h (Selumetinib) | IC50, cell viability 72 h (Olaparib) | IC50, cell viability 72 h (AZD4320) | IC50, cell viability 72 h (Gemcitabine) | IC50, cell viability 72 h (AZD6738) | IC50, cell viability 72 h (AZD5363) | IC50, cell viability 72 h (Doxorubicin) | IC50, cell viability 72 h (SRA737) | IC50, cell viability 72 h (Paclitaxel) | IC50, cell viability 72 h (Lapatinib) | IC50, cell viability 72 h (AZD2811) | IC50, cell viability 72 h (SN-38) | IC50, cell viability 72 h (AZD0156) | IC50, cell viability 72 h (SG3199) | IC50, cell viability 72 h (Dasatinib) | IC50, cell viability 72 h (Palbociclib) |
| --- | --- | --- | --- | --- | --- | --- | --- | --- | --- | --- | --- | --- | --- | --- | --- | --- | --- | --- | --- | --- | --- | --- | --- | --- | --- | --- | --- | --- | --- | --- | --- | --- | --- | --- | --- |
| HCT-116 (Colorectal Carcinoma) | > 1000 nM | 1070 nM | 2170 nM | > 300 nM | 635 nM | > 10000 nM | > 10000 nM | > 1000 nM | 16.3 nM | > 10000 nM | 10600 nM | 129 nM | > 10000 nM | 5460 nM | > 10000 nM | 2760 nM | 1960 nM | > 1000 nM | 244 nM | 2500 nM | > 10000 nM | > 1000 nM | 13.1 nM | 6970 nM | > 10000 nM | 218 nM | > 10000 nM | 3.24 nM | > 10000 nM | > 1000 nM | 19 nM | > 3000 nM | > 1 nM | > 2000 nM | 8690 nM |
| HLE (Hepatocellular Carcinoma) | > 1000 nM | 2230 nM | > 10000 nM | > 300 nM | 107 nM | > 10000 nM | > 10000 nM | > 1000 nM | > 1000 nM | > 10000 nM | > 20000 nM | > 5000 nM | > 10000 nM | > 10000 nM | > 10000 nM | > 10000 nM | 625 nM | > 1000 nM | > 1000 nM | > 10000 nM | > 10000 nM | > 1000 nM | 114 nM | 4910 nM | > 10000 nM | 426 nM | > 10000 nM | 60.3 nM | > 10000 nM | > 1000 nM | 14.3 nM | > 3000 nM | > 1 nM | > 2000 nM | > 10000 nM |
| MEG-01 (Chronic Myelogenous Leukemia) | > 1000 nM | 3120 nM | > 10000 nM | > 300 nM | 8.09 nM | > 10000 nM | > 10000 nM | > 1000 nM | 38.9 nM | > 10000 nM | > 20000 nM | 1220 nM | > 10000 nM | 4890 nM | > 10000 nM | 828 nM | 292 nM | > 1000 nM | 83.2 nM | 3410 nM | > 10000 nM | 309 nM | 51.4 nM | 812 nM | > 10000 nM | 540 nM | 1180 nM | 158 nM | > 10000 nM | 776 nM | 74.4 nM | > 3000 nM | > 1 nM | < 2 nM | > 10000 nM |
| MSTO-211H (Mesothelioma) | > 1000 nM | 3840 nM | > 10000 nM | > 300 nM | 54.4 nM | > 10000 nM | > 10000 nM | > 1000 nM | 874 nM | > 10000 nM | > 20000 nM | > 5000 nM | > 10000 nM | 9060 nM | > 10000 nM | > 10000 nM | > 3000 nM | > 1000 nM | > 1000 nM | > 10000 nM | > 10000 nM | > 1000 nM | 21.9 nM | 7720 nM | > 10000 nM | 857 nM | > 10000 nM | 2950 nM | > 10000 nM | > 1000 nM | 47 nM | > 3000 nM | > 1 nM | > 2000 nM | > 10000 nM |
| NOMO-1 (Acute Myeloid Leukemia) | 210 nM | 4160 nM | 1510 nM | > 300 nM | 5.79 nM | 9000 nM | > 10000 nM | 627 nM | 3.07 nM | > 10000 nM | 2210 nM | 591 nM | > 10000 nM | 2120 nM | > 10000 nM | 8600 nM | 215 nM | > 1000 nM | 50.4 nM | 138 nM | > 10000 nM | > 1000 nM | 10.1 nM | 1660 nM | > 10000 nM | 542 nM | 1160 nM | 7.09 nM | > 10000 nM | 905 nM | 7.23 nM | > 3000 nM | > 1 nM | > 2000 nM | 6660 nM |
